Measurements reported in article PMC7734798 (ACS Medicinal Chemistry Letters, 2020).
Values joined by “and” are separate entries in the source; they are usually repeats but may differ in a detail not shown here. Equal values may be shown once. Read-outs that look alike come from different tables or passages of the source.

How the values were obtained:
[1] = system: primary rat cerebellar granule neurons (CGNs); details: for cell survival/death in CGNs, % mean ± SE of controls (MTT): 24 h treatment
[2] = system: human liver carcinoma immortalized cell line (HepG2); details: 24 h treatment
Olig2 = assay: Oli-Neu proliferation marker Olig2 expression (Western blot); type: cell-based, mouse; details: Oli-Neu cells, 5 μM, 48 h
Excerpt: (§1) OPC proliferation and migration to the CNS injury site as well as their differentiation are critical steps toward remyelination in MS. HDAC activity plays a crucial role in OPC proliferation/differentiation; therefore, HDAC modulation is widely considered a promising therapeutic target for MS.[30] […] Therefore, we tested the effect of our compounds on OPC proliferation and differentiation, through cell counting, measure of filaments, and analysis of proliferation/differentiation markers (Figure 7).
(§2) Oli-Neu cells were grown in SATO medium (DMEM medium, 2 mM glutamine, 10 μg/ml insulin, 5.5 μg/ml transferrin, 38.72 nM sodium selenite, 100 µM putrescine, 520 nM L-thyroxine (T4), 500 nM triiodo-L-thyronine (T3), 200 nM progesterone, 25 μg/ml of gentamycin) supplemented with 1% heat-inactivated horse serum (HS) in a humidified, 5% CO2 incubator at 37°C. Cell culture medium and all chemicals were from Sigma-Aldrich, except for insulin-transferrin-sodium selenite 100X supplement (Life Technologies Corporation). Cells were plated on 96 well plates, previously coated with 10 μg/mL poly-L-lysine (Sigma-Aldrich; 10 μg/ml) at the density of 2.5 x 10 4/0.2 mL medium/well and treated with increasing concentrations of the compounds (0.5, 1, 5 and 10 μM).
After 24 hours, the viability was evaluated through the MTT assay.
(§3) Oli-Neu cells proliferation and differentiation assay
(§4) 48 hours, for cell counting and measure of filaments, 5 random images for each condition were acquired with an Eclipse TS100 (Nikon) microscope using a 10X objective. Cells number and filament length were measured with Fiji ImageJ2 software. After 48 hours for proliferation and 72 hours of treatment for differentiation analysis, cells were lysed in ice-cold lysis buffer (50 mM Tris-HCl pH 7.4, 1% SDS, 0.05% protease inhibitor cocktail; all from Sigma-Aldrich) and protein content was determined by using the Lowry method. […]

Oli-Neu cells = assay: Oli-Neu cell proliferation and differentiation assay: cell counting and measure of filaments; type: cell-based, mouse; details: 5 μM, 48 h
Excerpt: as §1
as §2, with “μM). […]” for “μM).”
as §3
48 hours, for cell counting and measure of filaments, 5 random images for each condition were acquired with an Eclipse TS100 (Nikon) microscope using a 10X objective. Cells number and filament length were measured with Fiji ImageJ2 software. […]

CNPase = assay: Oli-Neu differentiation marker CNPase expression (Western blot); type: cell-based, mouse; details: Oli-Neu cells, 5 μM, 72 h
Excerpt: OPC proliferation and migration to the CNS injury site as well as their differentiation are critical steps toward remyelination in MS. HDAC activity plays a crucial role in OPC proliferation/differentiation; therefore, HDAC modulation is widely considered a promising therapeutic target for MS.[30] […] Therefore, we tested the effect of our compounds on OPC proliferation and differentiation, through cell counting, measure of filaments, and analysis of proliferation/differentiation markers (Figure 7). […]
After 24 hours, the viability was evaluated through the MTT assay. […]
as §4

[3] = PAMPA-BBB permeation assay; details: PAMPA-BBB prediction
[4] = PAMPA

Row | Compound | cell survival/death in CGNs, % mean ± SE of controls (MTT) ([1]; 5 μM) | cell survival/death in CGNs, % mean ± SE of controls (MTT) ([1]; 10 μM) | cell survival/death in CGNs, % mean ± SE of controls (MTT) ([1]; 25 μM) | cell survival/death in CGNs, % mean ± SE of controls (MTT) ([1]; 50 μM) | cell survival/death in HepG2 cells, % mean ± SE of controls (MTT) ([2]; 5 μM) | cell survival/death in HepG2 cells, % mean ± SE of controls (MTT) ([2]; 10 μM) | cell survival/death in HepG2 cells, % mean ± SE of controls (MTT) ([2]; 25 μM) | cell survival/death in HepG2 cells, % mean ± SE of controls (MTT) ([2]; 50 μM) | also measured
1 | CC/C=C\C/C=C\C/C=C\CCCCCCCC(=O)O [ALA, α-linolenic acid, reference compound] | 93 ± 13% | 97 ± 3% | 79 ± 12% | 45% and 45 ± 5 ^b % | 109 ± 17% | 90 ± 5% | 91 ± 13% | 92 ± 9% | 
2 | CCCC(CCC)C(=O)O [VPA, valproic acid, reference compound] |  |  |  |  |  |  |  |  | expression of Olig2, marker of OPCs proliferation (Olig2): marked decrease; neurotoxicity profile in CGNs (in words) ([1]; 5-50 μM, 24 h): negligible neurotoxicity; Oli-Neu cell number (Oli-Neu cells): decrease cell number; Oli-Neu filament length (Oli-Neu cells): parallel increase in filament length; expression of CNPase, marker of differentiation (CNPase): significant increase
3 | CC/C=C\C/C=C\C/C=C\CCCCCCCC(=O)OCCNC(=O)C(CCC)CCC [compound 3] | 119 ± 17% | 116 ± 3% | 99 ± 17% | 41% and 41 ± 6 ^b % | 86 ± 10% | 92 ± 3% | 84 ± 10% | 75 ± 13% | 
4 | CC/C=C\C/C=C\C/C=C\CCCCCCCC(=O)OCCOC(=O)C(CCC)CCC [compound 4] | 118 ± 16% | 114 ± 3% | 71 ± 8% | 45% and 45 ± 8 ^b % | 95 ± 14% | 99 ± 5% | 75 ± 12% | 74 ± 12% | 
5 | CNC(=C[N+](=O)[O-])NCCSCc1ccc(CN(C)C)o1 [ranitidine, reference compound] |  |  |  |  |  |  |  |  | BBB penetration estimation, CNS (+/−) [3]: CNS –
6 | Nc1c2c(nc3ccccc13)CCCC2 [tacrine] |  |  |  |  |  |  |  |  | BBB penetration estimation, CNS (+/−) [4]: CNS +
